Measurements reported in US6232089A, “CD23 processing enzyme preparation” (SmithKline Beecham Corporation, priority 1998, dated 2001).
Entries after “also recorded” stand apart in the source; their conditions may differ. Where a name gives a salt, the structure may show the parent alone. One block for each molecule: values may come before it.

Key:
[1] = tested on: CD23 processing enzyme; assay: Membrane CD23 cleavage activity assay (sCD23 release from plasma membranes of RPMI 8866 cells); assay type: biochemical, human; settings: for IC50: membranes, read-out: IC50 for inhibition of CD23 processing (production of sCD23)
Experimental: Membrane CD23 cleavage activity assay:
Plasma membranes from RPMI 8866 cells, a human Epstein-Barr virus transformed B-cell (Sarfati et al., Immunology 60 (1987) 539-547), or a similar cell line expressing high levels of CD23 are purified using an aqueous extraction method. Cells resuspended in homogenization buffer (20 mM HEPES pH 7.4, 150 mM NaCl, 1.5 mM MgCl2, 1 mM DTT) are broken by N2 cavitation in a Parr bomb and the plasma membrane fraction mixed with other membranes recovered by centrifugation at 10,000×g. The light pellet is resuspended in 0.2 M potassium phosphate, pH 7.2 using 2 ml per 1-3 g wet cells and the nuclear pellet is discarded. The membranes are further fractionated by partitioning between Dextran 500 (6.4% w/w) and polyethylene glycol (PEG) 5000 (6.4% w/w) at 0.25 M sucrose in a total of 16 g per 10-15 mg membrane proteins (Morre and Morre, BioTechniques 7, 946-957 (1989)). The phases are separated by brief centrifugation at 1000×g and the PEG (upper) phase is collected, diluted 3-5 fold with 20 mM potassium phosphate buffer pH 7.4, and centrifuged at 100,000×g to recover membranes in that phase. The pellet is resuspended in phosphate-buffered saline and consists of 3-4 fold enriched plasma membranes as well as some other cell membranes (e.g. lysosomes, Golgi). The membranes are aliquoted and stored at -80° C. Fractionation at 6.6% Dextran/PEG yields plasma membranes enriched 10-fold.
The fractionated membranes are incubated at 37° C. for times up to 4 hours to produce fragments of CD23 which are separated from the membrane after quenching the assay with 5 uM compound 1 by centrifugation at 10,000×g. These CD23 fragments are consistent with those reported (Letellier et al, J Exp. Med. 172, 693-700 (1990)): MW, app 36-37 kDa as determined by 12% sodium dodecylsulfate-polyacrylamide electrophoresis (SDS-PAGE) of N-terminal sequence QKSQ; MW, app 33 kDa with N-terminal sequence LKSQ. Additional bands not sequenced: MW, app 28-29 kDa and a doublet at 25-26 kDa. These are detected by Western blot of the total protein in the incubation using a polyclonal antibody such as the polyclonal anti-CD23 antibody in The Binding Site (Birmingham, UK) enzyme-linked immunoassay (EIA) Bindazyme kit for the determination of soluble CD23. Following removal of the membrane by centrifugation or filtration in 0.2 micron filter plates (Durapore, Millpore), sCD23 can also be determined using the EIA kit from The Binding Site or a similar one utilizing MHM6 anti-CD23 mAb (Rowe et al., Int. J. Cancer, 29, 373-382 (1982)) or another anti-CD23 mAb as the capture antibody in a sandwich EIA. […] Samples were incubated at 37° C. for the varying times, quenched with compound 1, applied to 12% SDS-PAGE, and Western blotting on PVDF (Bio-Rad) membrane performed using standard methodology with a combination of BD4 (prepared as described in Biological example 2) and a polyclonal antibody which recognizes all soluble fragments as the primary antibody. The blot was developed by ECL, scanned using a BioImage system and quantitated using the Visage analysis package.
Inhibition of CD23 processing can also be determined by Western blot or by the 5 EIA (Elisa) method. The amount of soluble CD23 made by 0.5-5 ug membrane protein is measured either by quantitation of the Western blot as described using a Millipore BioImage system, or by EIA and compared to the amount made in the presence of various concentrations of inhibitors. Inhibitors are prepared in solutions of water or dimethylsulfoxide (DMSO) and the final DMSO concentration is not more than 2%. The enzyme activity of CD23 processing is inhibited by 1,10-phenanthroline (1 mM), and not by 1,7-phenanthroline (1 mM), PMSF (1 mM), E-64 (10 uM), pepstatin (10 uM), leupeptin (10 uM), or tosyl-leucylchloroketone (100 uM), and weakly by phosphoramidon (40% inhibition at 100 uM). The enzyme can heretofore best be described as a metalloprotease rather than a serine, cysteine or acid protease. […]

[2] = tested on: CD23 processing activity; assay: Affinity chromatography with compound 8 on streptavidin-agarose; assay type: binding, human
Experimental: Affinity Chromatography with compound 8 (compound 28 in synthetic examples)
An affinity column was prepared with compound 8 on streptavidin-agarose beads (Pierce Chemical Co.) by overnight mixing of an estimated five equivalents of compound 8 with beads in 50 mM HEPES, pH 7.5, 0. 1% NP-40 (binding buffer). The column was washed with 20 volumes of this buffer and 20 volumes of 50 mM HEPES pH 7.5, 0.5% NP-40 in a syringe column, and re-equilibrated to binding buffer. An equivalent column with no compound 8 was also prepared. 150 ug of solubilized membranes from RPMI 8866 cells were applied to the both columns, washed with 3 ml binding buffer, 3 ml binding buffer with 0.1 M NaCl, and 3 ml binding buffer with 50 uM compound 2. Each 1 ml fraction was concentrated, diluted 10-fold and reconcentrated if compound 2 was present, and assayed as in biological example 2. For the column with no compound 8, CD23 processing activity was detected primarily in fractions 1-3, with a small amount in fractions 5 and 6.

[3] = tested on: CD23 processing enzyme; assay: Solubilized membrane protein CD23 processing enzyme assay; assay type: biochemical, human; settings: concentration not given
[4] = tested on: CD23 processing enzyme; assay: Photolabeling of membranes or solubilized membrane proteins containing the CD23 processing enzyme, 12% SDS-PAGE / 2-dimensional gel electrophoresis; assay type: binding; settings: for molecular weight range of photolabeled bands: 12% SDS-PAGE, ECL detection, several bands; for molecular weight range of majority of minor biotinylated spots / pH range of minor biotinylated spots (acidic proteins): 2-dimensional gel electrophoresis, 0.1 to 0.3 uM compound 4 or 1 uM compound 3
Experimental: Compound 4 (Synthetic Example 17), Compound 5 (Synthetic Example 17a), Compound 6 (Synthetic Example 25), and Compound 7 (Synthetic Example 27) can also be used to photolabel membranes or solubilized membrane proteins containing the CD23 processing enzyme, using the same method described for compound 3. Analysis by 12% SDS-PAGE and ECL detection of biotinylated protein, using streptavidin-HRP detects several bands in the molecular weight range 50-65 kDa.
Up to 200 ug of membrane proteins in PBS were solubilized in 0.1 % NP-40 and photolabeled with 0.1 to 0.3 uM compound 4 or 1 uM compound 3 as described for compound 3 above. The sample was then dialyzed vs. 10 mM potassium phosphate pH 7.5, 0.1% NP-40, concentrated in a Centricon 10 (Amicon, Beverly Mass.), then made 8 M in urea, 2% in Triton X-100, 0. 8% in Pharmalyte 3-10 (Pharmacia) and 50 mM in DTT. After electrophoresis in both dimensions, the proteins were blotted to PVDF, and biotinylated proteins detected with streptavidin-HRP as described above. The majority of the minor biotinylated spots observed were in the molecular weight range 50-65 kDa and were acidic proteins with pH in the range 4.5-6.0.

[5] = tested on: CD23 fragments; settings: 10-20 mM, cell cultures; cited from earlier work
[6] = tested on: solubilized membrane proteins from BJAB cells; assay: Photolabeling of Superose 12 column fractions of solubilized membrane proteins, SDS-PAGE; assay type: binding; settings: 1 uM compound 3, long UV, 1 min, Superose 12 fractions, single band
Experimental: Compound 3 is an inhibitor of CD23 processing in membranes with an IC50 of about 1-3 uM. Compound 3 (the synthesis of which is described in the Synthetic Examples section as Example 9), is [N-[4-N'-Hydroxyamino-2-(R)-2-(2-methylpropyl)succinyl]-S-4-azidophenylalanine-N"-(6-biotinoylaminohexyl)amide]. Compound 3 was prepared for use as a photolabeling agents as follows. [drawing 1]
Column fractions from a Superose 12 column of solubilized membrane proteins from BJAB cells were photolabeled with 1 uM compound 3 using a Sunlit phosphor lamp at long UV for 1 min. […] Active fractions from RPMI 8866 fractionations are similarly photolabeled.
Fractions were concentrated, photolabeled as described, applied to 12% SDS-PAGE, blotted to PVDF and photolabeled material detected with streptavidin-horseradish peroxidase (streptavidin-HRP) using ECL (Amersham) methodology. Fraction "0" indicates the photolabeling observed in an unfractionated sample. The 45 kDa MW marker protein migrated with an elution volume corresponding to fractions 17 or 18. The fraction sizes are not the same as FIG. 7.

SMILES: C#CCSC[C@H](C(=O)NO)[C@@H](CC(C)C)C(=O)N[C@@H](Cc1ccccc1)C(=O)NCCCCCCNC(=O)CCCC[C@@H]1SC[C@@H]2NC(=O)N[C@@H]21 [Compound 8, N-[(3-(S)-propargylthiomethyl-4-(N-Hydroxyamino)-2R-isobutyl)succinyl]-(S)-phenylalanine-N-(6-biotinoylaminohexyl)amide]
- inhibition of CD23 processing ([1]; concentration not given): inhibitor of CD23 cleavage activity
- fractions in which CD23 processing activity was detected, column with compound 8 ([2]; binding buffer, then 0.1 M NaCl, then 50 uM compound 2, fractions 1-9): only in fractions 7-9

SMILES: CC(C)C[C@@H](C(=O)N[C@@H](Cc1ccccc1)C(=O)NCCCCCCNC(=O)CCCC[C@@H]1SC[C@@H]2NC(=O)N[C@@H]21)[C@H](CSCC(=O)c1ccc(N=[N+]=[N-])cc1)C(=O)NO [Compound 5, N-[4-Hydroxyamino-3-(S)-3-(4-azidophenacylthiomethyl)-2-(R)-2-(2-methylpropyl)succinyl]-S-phenylalanine-N'-(6-biotinoylaminohexyl)amide]
- molecular weight range of photolabeled bands [4]: 50-65 kDa

SMILES: Cc1ccc(S(=O)(=O)N[C@@H](CCCCN)C(=O)CCl)cc1 [TLCK]
- inhibition of CD23 processing ([1]; concentration not given): not inhibited

SMILES: NC(=O)CI [iodoacetamide]
- accumulation of 37 and 33 kDa CD23 fragments [5]: results in the accumulation
- accumulation of the 25-27 kDa CD23 fragments [5]: prevents the accumulation

SMILES: CC(C)C[C@H](NP(=O)(O)O[C@@H]1O[C@@H](C)[C@H](O)[C@@H](O)[C@H]1O)C(=O)N[C@@H](Cc1c[nH]c2ccccc12)C(=O)O [phosphoramidon]
- inhibition ([1]; 100 uM): 40%
- inhibition of CD23 processing ([1]; 100 uM): weakly

Continued, in another order:

- IC50 [1]: 2000 ± 1000 nM
SMILES: CC(C)C[C@H](CC(=O)NO)C(=O)N[C@@H](Cc1ccccc1)C(=O)NCc1ccccc1 [Compound 2]
- inhibition of CD23 processing ([1]; concentration not given): weaker inhibitor
- elution of CD23 processing activity from affinity column with compound 8 ([2]; 50 uM compound 2): specifically eluted

- IC50 [1]: 100 ± 50 nM
- inhibition of activity producing the 33 kDa fragment [3]: inhibited
SMILES: CNC(=O)[C@H](Cc1ccccc1)NC(=O)[C@H](CC(C)C)[C@H](CSc1cccs1)C(=O)NO [Compound 1, [4-(N-Hydroxyamino)-2-(R)-isobutyl-3-(S)-(2-thiophenethiomethyl)succinyl]-(S)-phenylalanine-N-methylamide, sodium salt]
- inhibition of CD23 processing ([1]; concentration not given): inhibited

- inhibition of activity producing the 33 kDa fragment [3]: inhibition; also recorded: inhibited
SMILES: c1cnc2c(c1)ccc1cccnc12 [1,10-phenanthroline]
- inhibition of CD23 processing ([1]; 1 mM): inhibited

- IC50 [1]: 1000 to 3000 nM
- molecular weight range of majority of minor biotinylated spots [4]: 50-65 kDa
- pH range of minor biotinylated spots (acidic proteins) [4]: 4.5-6.0
SMILES: CC(C)C[C@H](CC(=O)NO)C(=O)N[C@@H](Cc1ccc(N=[N+]=[N-])cc1)C(=O)NCCCCCCNC(=O)CCCC[C@@H]1SC[C@@H]2NC(=O)N[C@@H]21 [Compound 3, N-[4-N'-Hydroxyamino-2-(R)-2-(2-methylpropyl)succinyl]-S-4-azidophenylalanine-N"-(6-biotinoylaminohexyl)amide]
- MW, app of photolabeled band [6]: 45 kDa

- molecular weight range of photolabeled bands [4]: 50-65 kDa
SMILES: CC(C)C[C@@H](C(=O)N[C@@H](Cc1ccccc1)C(=O)NCCCCCCNC(=O)CCCC[C@@H]1SC[C@@H]2NC(=O)N[C@@H]21)[C@H](CSCc1ccc(C(=O)c2ccccc2)cc1)C(=O)NO [Compound 7, N-[(3-(S)-(4-benzoylbenzyl)thiomethyl-4-(N-Hydroxyamino)-2R-isobutyl)succinyl]-(S)-phenylalanine-N-(6-biotinoylaminohexyl)amide]

- molecular weight range of photolabeled bands [4]: 50-65 kDa
SMILES: CC(C)(C)[C@H](NC(=O)[C@H](Cc1ccc(N=[N+]=[N-])cc1)[C@H](O)C(=O)NO)C(=O)NCCCCCCNC(=O)CCCC[C@@H]1SC[C@@H]2NC(=O)N[C@@H]21 [Compound 6, N'-[3S-Hydroxy-4-(N-hydroxyamino)-2R-(4-azidobenzyl)succinyl]-S-tert-leucine-N-(6-biotinoylaminohexyl)amide]

- molecular weight range of majority of minor biotinylated spots [4]: 50-65 kDa
- pH range of minor biotinylated spots (acidic proteins) [4]: 4.5-6.0
- molecular weight range of photolabeled bands [4]: 50-65 kDa
SMILES: CC(C)C[C@@H](C(=O)N[C@@H](Cc1ccccc1)C(=O)NCCCCCCNC(=O)CCCC[C@@H]1SC[C@@H]2NC(=O)N[C@@H]21)[C@H](CSCC(=NO)c1ccc(N=[N+]=[N-])cc1)C(=O)NO [Compound 4, N-[4-N' Hydroxyamino-3-(S)-3-[(2-[4-azidophenyl]-2-[hydroxyimino]ethyl)-thiomethyl]-2-(R)-2-(2-methylpropyl)succinyl]-S-phenylalanine-N'-(6biotinoylaminohexyl)amide]
